Data from paper PMC9339560 (Journal of Food and Drug Analysis, 2016).

What was measured:
[1] = molecular target: butyrylcholinesterase from equine serum (Equus caballus, UniProt P81908); assay: Butyrylcholinesterase; assay type: biochemical; conditions: read-out: % Inhibition at 100 μg/mL (BChE)
BChE = conditions: cited from earlier work
[2] = tested on: β-amyloid-induced neurotoxicity; conditions: mice; cited from earlier work
[3] = tested on: mice with valium-impaired memory; conditions: radial arm maze; cited from earlier work
[4] = tested on: neuronal cell death caused by oxidative stress; conditions: cited from earlier work
AChE = conditions: cited from earlier work

butyrylcholinesterase from equine serum, sequence (P81908 whole entry): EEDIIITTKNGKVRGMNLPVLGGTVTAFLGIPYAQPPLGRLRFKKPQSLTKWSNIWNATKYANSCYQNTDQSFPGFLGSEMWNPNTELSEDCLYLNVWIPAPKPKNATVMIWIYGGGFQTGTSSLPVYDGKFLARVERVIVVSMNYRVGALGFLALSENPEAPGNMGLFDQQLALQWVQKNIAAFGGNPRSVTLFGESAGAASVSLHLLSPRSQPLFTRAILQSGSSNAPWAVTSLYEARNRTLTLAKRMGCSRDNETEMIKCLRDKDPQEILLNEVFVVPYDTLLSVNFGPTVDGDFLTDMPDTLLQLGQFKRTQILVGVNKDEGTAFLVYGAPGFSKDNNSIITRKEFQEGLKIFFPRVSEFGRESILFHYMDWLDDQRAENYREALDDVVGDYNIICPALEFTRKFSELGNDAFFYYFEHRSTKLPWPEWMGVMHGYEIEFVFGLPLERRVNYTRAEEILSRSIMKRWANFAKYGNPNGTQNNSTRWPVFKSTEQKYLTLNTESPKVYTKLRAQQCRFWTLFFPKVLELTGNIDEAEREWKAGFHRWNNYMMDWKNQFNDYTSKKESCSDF

In the case of `O=c1c(O[C@@H]2O[C@H](CO)[C@@H](O)[C@H](O)[C@H]2O)c(-c2ccc(O)cc2)oc2cc(O)cc(O)c12` [Compound 13, kaempferol 3-O-β-glucopyranoside], the inhibition at 100 µg/mL [1] is reported as 7.45 ± 0.72%.

For `C/C=C(\CC[C@@H](C)[C@H]1CC[C@H]2[C@@H]3CC=C4C[C@@H](O)CC[C@]4(C)[C@H]3CC[C@]12C)C(C)C` [Fucosterol, fucosterol], the BChE inhibitory activity (BChE) is given as “weak BChE inhibitory activity”.

Work on `CNC(=O)Oc1ccc2c(c1)[C@]1(C)CCN(C)[C@@H]1N2C` [Physostigmine, physostigmine, reference compound] yielded an inhibition at 100 µg/mL [1] of 94.94 ± 0.04%.

For `COc1cc(/C=C/C(=O)O)ccc1O` [ferulic acid], the β-amyloid-induced neurotoxicity [2] is given as “attenuate”.

In the case of `O=c1c(O)c(-c2ccc(O)cc2)oc2cc(O)cc(O)c12` [kaempferol], the “spatial learning and memory” value [3] is listed as “significantly improved”.

In the case of `O=C(O)/C=C/c1ccc(O)cc1` [p-coumaric, p-coumaric acid], the β-amyloid-induced neurotoxicity [2] is listed as “attenuate”.

In the case of `Cc1c(C)c2c(c(C)c1O)CC[C@@](C)(CCC[C@H](C)CCC[C@H](C)CCCC(C)C)O2` [α-Tocopherol, α-tocopherol], the “protection against neuronal cell death caused by oxidative stress” value [4] is listed as “protective effects”.

For `CC[C@H](CC[C@@H](C)[C@H]1CC[C@H]2[C@@H]3CC=C4C[C@@H](O)CC[C@]4(C)[C@H]3CC[C@]12C)C(C)C` [β-sitosterol], the “inhibitory effect on AChE” value (AChE) is listed as “no appreciable inhibitory effect” and the “inhibitory effect on BChE” value (BChE) is listed as “no appreciable inhibitory effect”.
